Patent US10174016B2 (BAYER AKTIENGESELLSCHAFT, priority 2014, dated 2019)
Read-outs that look alike come from different tables or passages of the source.

Key:
human P2X3 receptor = human P2X3 receptor (Homo sapiens (Human), UniProt P56373); assay: Intracellular calcium measurement (FLIPR, Fluo-4) of antagonist activity at human P2X3 receptors; assay type: cell-based; details: read-out: hP2X3 IC50
In short: (§1)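 Antagonism quantified from peak calcium fluorescence (Fluo-4, FLIPR, 90 sec read) evoked by EC80 α,β-Me-ATP, after a 30 min, 37° C. compound pretreatment in 1% DMSO. Human P2X3- or P2X2/3-expressing cells used; triplicate means fitted for IC50, percent maximal inhibition and Hill coefficient.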

human P2X2/3 receptor = human P2X2/3 receptor (Homo sapiens (Human), UniProt P56373+Q9UBL9); assay: Intracellular calcium measurement (FLIPR, Fluo-4) of antagonist activity at human P2X2/3 receptors; assay type: cell-based
human P2X2/3 receptor, sequence (P56373 whole entry): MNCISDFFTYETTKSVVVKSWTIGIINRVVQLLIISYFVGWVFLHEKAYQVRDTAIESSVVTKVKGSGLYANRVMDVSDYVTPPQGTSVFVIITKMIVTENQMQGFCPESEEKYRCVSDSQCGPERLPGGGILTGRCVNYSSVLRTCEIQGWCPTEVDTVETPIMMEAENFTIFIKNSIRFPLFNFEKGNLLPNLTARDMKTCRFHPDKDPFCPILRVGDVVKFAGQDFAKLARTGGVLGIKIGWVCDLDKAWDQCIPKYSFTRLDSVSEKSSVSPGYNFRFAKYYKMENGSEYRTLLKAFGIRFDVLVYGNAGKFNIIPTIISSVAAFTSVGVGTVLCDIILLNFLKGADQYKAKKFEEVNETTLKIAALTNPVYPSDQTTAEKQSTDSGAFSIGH
human P2X2/3 receptor, sequence (Q9UBL9 whole entry): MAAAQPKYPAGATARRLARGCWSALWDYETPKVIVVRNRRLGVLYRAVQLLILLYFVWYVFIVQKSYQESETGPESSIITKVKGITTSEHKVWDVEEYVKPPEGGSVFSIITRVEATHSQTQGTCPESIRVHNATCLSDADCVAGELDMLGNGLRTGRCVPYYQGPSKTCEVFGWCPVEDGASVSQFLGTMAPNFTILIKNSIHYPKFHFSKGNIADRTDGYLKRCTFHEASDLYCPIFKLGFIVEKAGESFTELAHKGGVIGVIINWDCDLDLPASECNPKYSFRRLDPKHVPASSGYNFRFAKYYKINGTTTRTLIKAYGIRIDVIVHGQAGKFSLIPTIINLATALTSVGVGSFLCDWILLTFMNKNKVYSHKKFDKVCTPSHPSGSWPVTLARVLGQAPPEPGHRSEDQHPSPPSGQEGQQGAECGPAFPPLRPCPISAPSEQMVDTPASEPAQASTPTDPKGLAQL
In short: as §1

[1] = human P2X3, FLIPR calcium assay, agonist α,β-Me-ATP
[2] = human P2X2/3, FLIPR calcium assay, agonist α,β-Me-ATP, read-out: hP2X2/3 IC50

human P2X3 receptor, sequence (P56373 whole entry): as the sequence (P56373 whole entry) above

SMILES	IC50 (human P2X3 receptor; [1])	IC50 (human P2X2/3 receptor; [2])	IC50 (human P2X3 receptor)	IC50 (human P2X2/3 receptor; hP2X2/3 IC50 (nM))
Cc1cnc(-c2cc(OCCn3cncn3)cc(C(=O)N[C@H](C)c3ccc(C(F)(F)F)nc3)c2)s1 [Example 160, 3-(5-methyl-1,3-thiazol-2-yl)-5-[2-(1H-1,2,4-triazol-1-yl)ethoxy]-N-{(1R)-1-[6-(trifluoromethyl)pyridin-3-yl]ethyl}benzamide]	28 nM	1010 nM		
Cc1cnc(-c2cc(OC3COC3)cc(C(=O)N[C@H](C)c3ccc(C(F)(F)F)nn3)c2)s1 [Example 161, 3-(5-methyl-1,3-thiazol-2-yl)-5-(oxetan-3-yloxy)-N-{(1R)-1-[6-(trifluoromethyl)pyridazin-3-yl]ethyl}benzamide]	32 nM	632 nM		
Cc1cnc(-c2cc(OC3COC3)cc(C(=O)N[C@H](C)c3ccc(C(F)F)nc3)c2)s1 [Example 164]	60 nM	1110 nM		
Cc1cnc(-c2cc(O[C@H]3C[C@H](N(C)C)C3)cc(C(=O)N[C@H](C)c3cnc(C(F)(F)F)nc3)c2)s1 [Example 165, 3-{[trans-3-(dimethylamino)cyclobutyl]oxy}-5-(5-methyl-1,3-thiazol-2-yl)-N-{(1R)-1-[2-(trifluoromethyl)pyrimidin-5-yl]ethyl}benzamide]	81 nM	1920 nM		
Cc1cnc(-c2cc(O[C@@H]3CCOC3)cc(C(=O)NCc3cnc(C(F)(F)F)nc3)c2)s1 [Example 166, 3-(5-methyl-1,3-thiazol-2-yl)-5-[(3R)-tetrahydrofuran-3-yloxy]-N-{[2-(trifluoromethyl)pyrimidin-5-yl]methyl}benzamide]	40 nM	461 nM		
Cc1cnc(-c2cc(OC3COC3)cc(C(=O)NCc3cnc(C(F)(F)F)nc3)c2)s1 [Example 167, 3-(5-methyl-1,3-thiazol-2-yl)-5-(oxetan-3-yloxy)-N-{[2-(trifluoromethyl)pyrimidin-5-yl]methyl}benzamide]	72 nM	893 nM		
Cc1cnc(-c2cc(O[C@H]3CN4CCC3CC4)cc(C(=O)N[C@H](C)c3cnc(C(F)(F)F)nc3)c2)s1 [Example 168, 3-[(3R)-1-azabicyclo[2.2.2]oct-3-yloxy]-5-(5-methyl-1,3-thiazol-2-yl)-N-{(1R)-1-[2-(trifluoromethyl)pyrimidin-5-yl]ethyl}benzamide]			19 nM	1600 nM
Cc1ccc(Oc2cc(C(=O)N[C@H](C)c3cnc(C(F)(F)F)nc3)cc(-c3ncc(C)s3)c2)nn1 [Example 170, 3-[(6-methylpyridazin-3-yl)oxy]-5-(5-methyl-1,3-thiazol-2-yl)-N-{(1R)-1-[2-(trifluoromethyl)pyrimidin-5-yl]ethyl}benzamide]	165 nM	2020 nM		

Second part, led by results:

IC50 (human P2X3 receptor; [1])	IC50 (human P2X2/3 receptor; [2])	SMILES	IC50 (human P2X3 receptor)	IC50 (human P2X2/3 receptor; hP2X2/3 IC50 (nM))
27 nM	304 nM	Cc1cnc(-c2cc(O[C@@H]3CCOC3)cc(C(=O)N[C@H](C)c3cnc(C(F)F)nc3)c2)s1 [Example 153, N-{(1R)-1-[2-(difluoromethyl)pyrimidin-5-yl]ethyl}-3-(5-methyl-1,3-thiazol-2-yl)-5-[(3R)-tetrahydrofuran-3-yloxy]benzamide]		
17 nM	534 nM	Cc1cnc(-c2cc(O[C@@H]3CCOC3)cc(C(=O)N[C@H](C)c3ccc(C(F)(F)F)nc3)c2)s1 [Example 157, 3-(5-methyl-1,3-thiazol-2-yl)-5-[(3R)-tetrahydrofuran-3-yloxy]-N-{(1R)-1-[6-(trifluoromethyl)pyridin-3-yl]ethyl}benzamide]		
9 nM	70 nM	CCc1cnc(-c2cc(OC3COC3)cc(C(=O)N[C@H](C)c3cnc(C(F)(F)F)nc3)c2)s1 [Example 169, 3-(5-ethyl-1,3-thiazol-2-yl)-5-(oxetan-3-yloxy)-N-{(1R)-1-[2-(trifluoromethyl)pyrimidin-5-yl]ethyl}benzamide]		
26 nM	573 nM	Cc1cnc(-c2cc(O[C@@H]3CCOC3)cc(C(=O)N[C@H](C)c3ccc(C(F)F)nc3)c2)s1 [Example 171, N-{(1R)-1-[6-(difluoromethyl)pyridin-3-yl]ethyl}-3-(5-methyl-1,3-thiazol-2-yl)-5-[(3R)-tetrahydrofuran-3-yloxy]benzamide]		
